Consider 25 compounds from US12466803B2 (priority 2021, dated 2025).

The structures appear in SMILES notation.

One experiment relates to obese ZSF1 rats.
Assay: not given
The following applies: diet containing 1.36 g BT2/kg, after 4 additional weeks (8 weeks) of treatment; mean±SD.
`O=C(O)c1sc2cc(Cl)ccc2c1Cl` [BT2] came in with a kidney weights of 2.09 ± 0.1 g.

The same experiment, now with this note: diet containing 1.36 g BT2/kg, after 4 weeks of treatment; BCA assay; mean±SD.
Consider `O=C(O)c1sc2cc(Cl)ccc2c1Cl` [BT2], for which the “urine protein normalized to creatinine” value is reported as 55.4±7.2 mg protein/mg creatinine.

Staying with this experiment, now noted: diet containing 1.36 g BT2/kg, after 4 weeks of treatment; mean±SD.
`O=C(O)c1sc2cc(Cl)ccc2c1Cl` [BT2]: the “urine produced in 5 hour urine collection” value amounted to 4.4 ± 2.7 mL.

The experiment is the same for the next values; noted with them: histology graded on a scale of 0-4, after 8 weeks of BT2 diet; mean±SD.
In turn, `O=C(O)c1sc2cc(Cl)ccc2c1Cl` [BT2] displayed a diabetic nephropathy score of 2.9±0.8.

A further experiment relates to phospho (S293) BCKDHA in human skeletal myocytes. Put plainly: Phospho BCKDHA Alpha Surefire Cell Assay. The format is cell-based. As to conditions: 60 minutes with compound, geometric mean.
For `C[C@@H]1CCc2cc(-c3c(C(=O)O)sc4cc(F)ccc34)ccc2O1` (single isomer, unassigned) [Example 44, 6-fluoro-3-(2-methyl-3,4-dihydro-2H-1-benzopyran-6-yl)-1-benzothiophene-2-carboxylic acid, ENANT-2], the IC50 (as a rule, the point on the concentration scale where inhibition reaches its midpoint) is greater than 56000 nM.
Still for that read-out and setting: as for `C[C@@H]1CCc2c(ccc(-c3c(C(=O)O)sc4cc(F)ccc34)c2F)O1` (single isomer, unassigned) [Example 78, 6-fluoro-3-(5-fluoro-2-methyl-3,4-dihydro-2H-1-benzopyran-6-yl)-1-benzothiophene-2-carboxylic acid, ENANT-2], the figure is 3900 nM.

Still in this experiment, the particulars now being: Homo sapiens, 1 h, 60 minutes with compound, geometric mean.
Turning to `C[C@@H]1CCc2cc(-c3c(C(=O)O)sc4cc(F)ccc34)c(F)cc2O1` (single isomer, unassigned) [Example 68, 6-fluoro-3-(7-fluoro-2-methyl-3,4-dihydro-2H-1-benzopyran-6-yl)-1-benzothiophene-2-carboxylic acid, ENANT-1], the IC50 stood at 6000 nM.
Same read-out and setting: then `O=C(O)c1sc2cc(F)cc(F)c2c1-c1ccccc1` [Example 5, Ammonium 4,6-difluoro-3-phenyl-1-benzothiophene-2-carboxylate], with greater than 60000 nM.
Regarding `CCc1c(F)ccc(-c2c(C(=O)O)sc3cc(Cl)ccc23)c1F` [Example 143, 6-chloro-3-(3-ethyl-2,4-difluorophenyl)-1-benzothiophene-2-carboxylic acid], the IC50 worked out at 200 nM.
Turning to `COc1c(C#N)cc(F)c(-c2c(C(=O)O)sc3cc(F)ccc23)c1F` [Example 75, 3-(4-cyano-2,6-difluoro-3-methoxyphenyl)-6-fluoro-1-benzothiophene-2-carboxylic acid], the IC50 is greater than 60000 nM.
Same read-out and setting: as for `O=C(O)c1sc2cc(F)ccc2c1-c1ccc2c(c1)CCCO2` [Example 28, 3-(3,4-dihydro-2H-1-benzopyran-6-yl)-6-fluoro-1-benzothiophene-2-carboxylic acid], the figure is 4900 nM; as for `CC1CCc2c(cc(F)c(-c3c(C(=O)O)sc4cc(F)ccc34)c2F)O1` (stereo not shown) [Example 3, 3-(5,7-Difluoro-2-methyl-3,4-dihydro-2H-1-benzopyran-6-yl)-6-fluoro-1-benzothiophene-2-carboxylic acid], 1000 nM; as for `COc1ccc(Cl)c(-c2c(C(=O)O)sc3cc(F)ccc23)c1F` [Example 150, 3-(6-chloro-2-fluoro-3-methoxyphenyl)-6-fluoro-1-benzothiophene-2-carboxylic acid], 1100 nM.
On the same count and under the same terms, then `O=C(O)c1sc2cc(F)ccc2c1-c1cc(Cl)c(Cl)cc1F` [Example 7, 3-(4,5-Dichloro-2-fluorophenyl)-6-fluoro-1-benzothiophene-2-carboxylic acid], with 94 nM; and `O=C(O)c1sc2cc(Cl)ccc2c1-c1ccc(F)c(F)c1F` [Example 33, 6-chloro-3-(2,3,4-trifluorophenyl)-1-benzothiophene-2-carboxylic acid], with 1100 nM.
Still for that read-out and setting: then `Cc1ncc(F)c(-c2c(C(=O)O)sc3cc(F)ccc23)c1F` [Example 8, 3-(3,5-Difluoro-2-methylpyridin-4-yl)-6-fluoro-1-benzothiophene-2-carboxylic acid], with 720 nM; and `O=C(O)c1sc2cc(Cl)ccc2c1-c1ccccc1` [Example 74, 6-chloro-3-phenyl-1-benzothiophene-2-carboxylic acid], with greater than 60000 nM; and `Cc1c(F)c(F)cc(-c2c(C(=O)O)sc3cc(Cl)ccc23)c1F` [Example 10, 6-Chloro-3-(2,4,5-trifluoro-3-methylphenyl)-1-benzothiophene-2-carboxylic acid], with 66 nM.
Consider `COc1cc(-c2c(C(=O)O)sc3cc(F)ccc23)c(F)cc1Cl` [Example 36, 3-(4-chloro-2-fluoro-5-methoxyphenyl)-6-fluoro-1-benzothiophene-2-carboxylic acid], for which the IC50 was found to be 3000 nM.
For `COc1c(F)c(F)cc(-c2c(C(=O)O)oc3cc(Cl)ccc23)c1F` [Example 18, 6-Chloro-3-(2,4,5-trifluoro-3-methoxyphenyl)-1-benzofuran-2-carboxylic acid], the IC50 amounted to 570 nM.
As for `CC1CCc2c(cc(F)c(-c3c(C(=O)O)sc4cc(Cl)ccc34)c2F)O1` (stereo not shown) [Example 80, 6-chloro-3-(5,7-difluoro-2-methyl-3,4-dihydro-2H-1-benzopyran-6-yl)-1-benzothiophene-2-carboxylic acid], the IC50 was 4000 nM.
Still for that read-out and setting: then `COc1c(Cl)ccc(-c2c(C(=O)O)sc3cc(F)ccc23)c1F` [Example 79, 3-(4-chloro-2-fluoro-3-methoxyphenyl)-6-fluoro-1-benzothiophene-2-carboxylic acid], with 230 nM; and `O=C(O)c1sc2cc(F)ccc2c1-c1ccc(Cl)cc1F` [Example 64, 3-(4-chloro-2-fluorophenyl)-6-fluoro-1-benzothiophene-2-carboxylic acid], with 11000 nM; and `COc1cc(-c2c(C(=O)O)sc3cc(F)ccc23)c(F)c(F)c1Cl` [Example 114, 3-(4-chloro-2,3-difluoro-5-methoxyphenyl)-6-fluoro-1-benzothiophene-2-carboxylic acid], with 1800 nM.
Same read-out and setting: then `COc1c(F)c(F)cc(-c2c(C(=O)O)sc3cc(Cl)ccc23)c1F` [Example 12, Ammonium 6-chloro-3-(2,4,5-trifluoro-3-methoxyphenyl)-1-benzothiophene-2-carboxylate], with 110 nM; and `Cc1c(Cl)ccc(-c2c(C(=O)O)sc3cc(Cl)ccc23)c1F` [Example 146, 6-chloro-3-(4-chloro-2-fluoro-3-methylphenyl)-1-benzothiophene-2-carboxylic acid], with 110 nM; and `Cc1cc(-c2c(C(=O)O)sc3cc(F)ccc23)c(F)cc1F` [Example 95, 3-(2,4-difluoro-5-methylphenyl)-6-fluoro-1-benzothiophene-2-carboxylic acid], with 1000 nM.
Still for that read-out and setting: as for `COc1cccc(-c2c(C(=O)O)sc3cc(Cl)ccc23)c1F` [Example 30, 6-chloro-3-(2-fluoro-3-methoxyphenyl)-1-benzothiophene-2-carboxylic acid], the figure is 2600 nM.
